Reference: patent US20240041890A1, “ANTI-HAIR-LOSS COMPOSITION” (WELLA GERMANY GMBH, priority 2020, published 2024)

How the values were obtained:
[1] = system: hair follicles in human full thickness scalp skin punches; assay: Microscopic hair cycle staging and hair cycle score in ex vivo cultured scalp skin; format: cell-based; conditions: for hair cycle score ± SEM: 100 = anagen, 200 = early catagen, 300 = mid catagen, 400 = late catagen, lower number = more hairs in anagen; for % of hair follicles in anagen phase / % of hair follicles in early catagen phase: two topical treatments (day 1 and 3), evaluated after 5 days of ex vivo culture
Protocol: Human full thickness scalp skin punches (6 mm diameter) with hair from the occipital region were obtained from a donor. The dissected human punches were cultured at 37° C. with 5% CO2 in a minimal media of William's E media (Gibco, Life Technologies) supplemented with 10 ng/ml hydrocortisone (Sigma Aldrich), 10 μg/ml insulin (Sigma Aldrich) and 1% penicllin/streptomycin (Gibco) to make William's Complete Media (WCM) modified as previously described (Edelkamp et al., Molecular Dermatology 2020, Langan et al., Exp Dermatol 2015). After 24 h resting culture (day 0), two topical treatments were Performed (day 1 and 3). The medium was changed at day 3. Punches were embedded in OCT Compound (Optimal Cutting Temperature Compound) after 5 days (day 5) of ex vivo culture and cryosectioned (7 μm sections). The experimental groups for the topical treatments are outlined in Table 3.
Hair cycle staging and hair cycle score are perfomed at the end of the culture and can be determined according to several established macroscopic and microscopic paremeters (Langan et al., Exp Dermatol 2015; Oh et al., JID 2016).
Hair follicles are microscopically evaluated for the hair cycle staging using Masson-Fontana histochemistry and Ki-67/TUNEL immunostaining as previously described (Kloepper at al., Exp Dermatol 2010; Langan et al., Exp Dermatol 2015). For each experimental group, the percentage of hair follicles in each hair cycle phase was calculated and is shown below.

human hair follicles = conditions: by decreasing apoptosis and increasing the production of growth factor IGF-1; cited from earlier work
[2] = target: T1, olfactory receptor OR2AT4 (Homo sapiens, UniProt A6NND4); conditions: OR2AT4 expressed in the epithelium of human hair follicles; cited from earlier work
T1 sequence (A6NND4 1-320): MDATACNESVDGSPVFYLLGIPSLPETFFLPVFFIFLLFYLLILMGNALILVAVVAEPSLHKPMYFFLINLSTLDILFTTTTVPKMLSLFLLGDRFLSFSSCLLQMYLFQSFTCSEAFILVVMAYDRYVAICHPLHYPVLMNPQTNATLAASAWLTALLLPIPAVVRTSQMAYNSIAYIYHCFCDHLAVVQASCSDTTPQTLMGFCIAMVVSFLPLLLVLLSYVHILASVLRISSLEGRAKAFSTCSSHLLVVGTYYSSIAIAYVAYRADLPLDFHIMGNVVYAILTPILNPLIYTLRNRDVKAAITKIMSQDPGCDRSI

| Structure (SMILES) | hair cycle score ± SEM [1] [arbitrary units] | effect on anagen (in words) ([1]; topical application on ex vivo cultured scalp skin) | % of hair follicles in anagen phase [1] [%] | % of hair follicles in early catagen phase [1] [%] | effect on hair growth ex vivo (human hair follicles) | effect on the olfactory receptor OR2AT4 [2] |
| --- | --- | --- | --- | --- | --- | --- |
| CC1=CCC(CCC(C)C(C)O)C1(C)C (stereo not drawn) [#2 (Sand), 3-methyl-5-(2,2,3-trimethylcyclopent-3-en-1-yl)pentan-2-ol] | 137.5 ± 12.5 | prolongs anagen | 63 | 38 | prolongs hair growth ex vivo | stimulatory effect |
| Nc1cc(N2CCCCC2)nc(N)[n+]1[O-] [#5 Minox), Minoxidil] | 123.1 ± 12.16 | – | 77 | 23 | – | – |
